# Columns and labels:
# [1] = molecular target: T1, WASp (Homo sapiens, UniProt P42768); test: WASp expression in anti-CD3/anti-CD28-activated PBMCs (western blot); type: cell-based
# T1 construct: endogenous in cells; host or cells: primary human platelets from healthy donors
# T1 sequence (P42768 1-502): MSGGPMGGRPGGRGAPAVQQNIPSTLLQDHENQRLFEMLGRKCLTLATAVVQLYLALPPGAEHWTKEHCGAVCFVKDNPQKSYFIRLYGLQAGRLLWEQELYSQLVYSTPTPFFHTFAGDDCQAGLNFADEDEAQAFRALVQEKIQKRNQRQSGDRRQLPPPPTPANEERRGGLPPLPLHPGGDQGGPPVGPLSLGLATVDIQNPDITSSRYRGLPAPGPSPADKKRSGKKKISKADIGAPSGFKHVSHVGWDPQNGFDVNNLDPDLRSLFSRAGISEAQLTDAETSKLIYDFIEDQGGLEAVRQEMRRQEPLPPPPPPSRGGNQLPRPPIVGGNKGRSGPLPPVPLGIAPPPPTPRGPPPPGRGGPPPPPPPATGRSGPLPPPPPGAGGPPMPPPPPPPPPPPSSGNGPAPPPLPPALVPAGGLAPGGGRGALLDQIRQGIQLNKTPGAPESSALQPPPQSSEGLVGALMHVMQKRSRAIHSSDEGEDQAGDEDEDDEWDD
# Method: FIG. 4C-4D. Freshly-isolated PBMCs were incubated with SMC #6 or control at 37° C. for the indicated times. The PBMCs were either co-stimulated (+) with anti-CD3 and anti-CD28 or left unstimulated (−), followed by lysis. Lysates were analyzed for WASp expression by immunoblotting with anti-WASp and anti-GAPDH as loading control (FIG. 4C). Relative WASp expression was determined by densitometric analysis and is presented in a summarizing graph of FIG. 4D. Error bars represent the SE from the mean. P values were calculated versus DMSO-treated control cells by two-tailed Student's t-test, and is indicated therein. Data are representative of three independent experiments.
# Jurkat T-cells (FIG. 5A) or Freshly-isolated PBMCs (FIG. 5B) were incubated for 15 min at 37° C. with either control or the indicated WASp-binding SMCs, followed by co-stimulation with anti-CD3 and anti-CD28 and lysis. Freshly-isolated platelets were incubated for 15 min at 37° C. with either control or the indicated WASp-binding SMCs, followed by stimulation with TRAP-6 (10 μM) and lysis (FIG. 5C). Lysates were analyzed for WASp expression by immunoblotting with anti-WASp and anti-GAPDH as loading control. Western blot is representative of three independent experiments. […] Relative WASp expression was determined by densitometric analysis. Error bars represent the SE from the mean. […]
# [2] = test system: WAS−/− Jurkat T-cells; test: Lymphocyte activation (CD69, flow cytometry), WAS−/− cells; type: cell-based, human
# Method: 1×10^6 WASp knockout Jurkat T-cell line that expresses only exogenous YFP-WASp harboring the common human WAS and XLT mutation, R86C (WAS−/−/WASp R86C) was pretreated with either negative control or SMC #34. Cells that completely lack WASp expression (WAS^−/−) were also treated with the control. The cells were then stimulated with PMA and Ionomycin. After incubation, the cells were stained with PE-Cy5™-conjugated mouse anti-human CD69 and lymphocyte activation was measured by flow cytometry as described in Experimental procedures. Histogram of negative control versus SMC #34 is presented.
# PBMCs or Jurkat cells (about 3×10^5 cells) were incubated for 4 h, at 37° C. with 50 ng/ml PMA and 250 ng/ml lonomycin, or 40 ng/ml PMA and 6 μM Ionomycin, respectively, or left untreated. After incubation, the cells were collected and stained with 1 μg/ml anti-active human LFA-1 antibody (purified from KIM127 hybridoma sup, ATCC Cat #: CRL-2838, Sigma) for 30 min in 37° C., followed by staining with Alexa488-Fluor goat anti-mouse IgG1 secondary antibody (Molecular Probes, Cat #: A-21121), 30 min on ice. Cells were then co-stained with PE-Cy5™-conjugated mouse anti-human CD69 (BD Pharmingen, Cat #: 555532) to measure lymphocyte activation.
Structure (SMILES),WASp degradation in PBMCs ([1]; after 15 min of incubation),"WASp degradation in PBMCs ([1]; after 2 h of incubation, compared with 15 min)",lymphocyte activation (CD69) [2]
"CC(=O)N[C@H]1C[C@@H](c2ccc3c(c2)nnn3C)O[C@@H](c2ccc(Cl)cc2)C1 [SMC #6, N-[(2R,4R,6S)-2-(4-chlorophenyl)-6-(1-methylbenzotriazol-5-yl)oxan-4-yl]acetamide]",attenuated WASp degradation,more pronounced,–
"CC1CCCC(C)N1C(=O)CSc1nnc(COc2cccc3cccnc23)o1 (stereo not drawn) [SMC #34, 1-(2,6-dimethylpiperidin-1-yl)-2-[[5-(quinolin-8-yloxymethyl)-1,3,4-oxadiazol-2-yl]sulfanyl]ethanone]",–,–,restored the activation

# — patent publication US12150940B2, “WASp-protecting small molecules, compositions, methods and uses thereof in the treatment of innate and acquired immune-related disorders or conditions” (BAR ILAN UNIVERSITY, priority 2016, dated 2024)
